Here are results for ten molecules from US20080008652A1, “Methods and compositions for mediation of immune responses and adjuvant activity” (The Regents of the University of Michigan, priority 2006, published 2008).

The subject of data set [1] is peritoneal macrophages and bone marrow-derived macrophages (BMDM). Put plainly: Cytokine secretion (IL-1β, IL-18, TNFα, IL-6) by stimulated macrophages, ELISA. To be noted: for requirement of endosomal acidification for IL-1β secretion: FIG. 12; for secretion of IL-1β with brief ATP treatment: ligand 16 h, then 2 mM ATP 30 min. It counts as cell-based, mouse.
In the next data set the test system is caspase-1. The data set can be described thus: Caspase-1 activation (pro-caspase-1 processing) in macrophages, Western blotting. The format is cell-based, mouse. To be noted: for proteolytic processing of pro-caspase-1 (mature 20 kDa subunit): WT macrophages, ligand 1-3 h, then ATP 30 min.
The subject of another data set is BMDM. Put plainly: Cooperation of low-dose LPS with microbial ligands for IL-1β secretion. The format is cell-based, mouse. Particulars: for synergy with LPS for the secretion of IL-1β: WT BMDM, 10 ng ml−1 LPS and 10 ng ml−1 ligand, 24 h. The method, then: Measurements of cytokines. BMDM and peritoneal macrophages were prepared as previously described. Cells were stimulated with various microbial and synthetic ligands for 24 h and the supernatants were analyzed for IL-1β, IL-18, TNFα and IL-6 secretion. The following ligand concentrations were used: FLS-1, Pam3CSKKK4, LPS, lipoteichoic acid, lipid A and MDP were used at 1 μg ml^−1. For analysis of cooperation of LPS with various ligands, 10 ng ml^−1 of LPS and 10 ng ml^−1 of various ligands were used. In some experiments, the macrophages were stimulated with ligands for 16 h and then with medium containing 2 mM ATP (Sigma) for 30 min, washed, and cultured for an additional 5 h. Mouse cytokines were measured in culture supernatants with enzyme-linked immunoabsorbent assay (ELISA) kits (R and D Systems, Minneapolis, Minn.).

For a further data set, the system named is NF-κB, ERK and p38. The data set can be described thus: NF-κB and MAPK (ERK, p38) activation in macrophages, Western blotting. Particulars: R837 5 μg ml-1. It counts as cell-based, mouse.
Data set [2] concerns IL-1β, IL-6 and TNFα in serum. The data set can be described thus: Serum cytokines after co-injection of LPS and R837 into mice, ELISA. The format is in vivo, mouse. As for the experimental part:
(200 μg) or LPS plus […] (200 μg each) and levels of IL-1β (a), IL-6 (b) or TNFα (c) in serum were determined by ELISA at the indicated times.

For data set [3], the system named is HSA-specific immunoglobulin. Put plainly: Adjuvant activity: HSA-specific serum immunoglobulin after immunization. It counts as in vivo, mouse. The method, then: Immunization of mice. […] Serum sample were obtained two weeks after the first immunization and one week after the boost, and antigen specific serum immunoglobulin was assessed by ELISA using antibodies against mouse immunoglobulin and isotype controls (Southern Biotechnology).

The next data set relates to mice. Put plainly: LPS-induced endotoxic shock, survival. The format is in vivo, mouse. Particulars: WT compared with cryopyrin−/− mice; 200 μg or 400 μg LPS. As for the experimental part: Indicated numbers of wild-type and cryopyrin−/− mice (8 to 12 weeks old) were challenged with 200 μg (a) or 400 μg (b) of LPS and the survival over time of each mouse genotype was plotted.

The mark [4] stands for this setting: WT compared with cryopyrin−/− peritoneal macrophages or BMDM, 24 h stimulation, ELISA.
Where [5] appears, read: WT compared with cryopyrin−/− macrophages, R837 stimulation 24 h.
The mark [6] stands for this setting: WT compared with cryopyrin−/− macrophages.
The mark [7] stands for this setting: WT mice, co-injection of LPS and R837 compared with each alone.
[8] abbreviates: cryopyrin−/− mice, LPS plus R837.
Setting [9] is: cryopyrin−/− compared with WT mice, R837 100 μg and HSA 50 μg i.p., 2 weeks after immunization.

For lipid A, the “secretion of IL-1β” value in data set [1] (setting [4]) was “induced comparable levels of IL-1β in wild-type (WT) and cryopyrin−/− macrophages”. For the same molecule, the “activation of caspase-1” value in the data set on caspase-1 (cryopyrin−/− macrophages) is listed as “unimpaired in cryopyrin−/− macrophages”. Besides, the “synergy with LPS for the secretion of IL-1β” value (“synergy with LPS” for short) in the data set on BMDM was “not”.
`CC(C)Cn1cnc2c(N)nc3ccccc3c21` [R837, Imiquimod]: the “requirement of endosomal acidification for IL-1β secretion” value in data set [1] is on record as “not required”. Further, in data set [1] (setting [5]), the “production of IL-6: need for cryopyrin” value is listed as “cryopyrin was dispensable” and the “production of TNFα: need for cryopyrin” value is on record as “cryopyrin was dispensable”. The “secretion of IL-1β with brief ATP treatment” value in data set [1] (setting [6]) is “Cryopyrin is required”. In data set [1] (setting [4]), the “secretion of IL-1β” value is listed as “abrogated” and the “secretion of IL-18” value was “abrogated”. Moreover, the “activation of caspase-1” value in the data set with caspase-1 (TLR7- or MyD88-deficient macrophages) was “proceeded normally”. Besides, in the data set with caspase-1, the “proteolytic processing of pro-caspase-1 (mature 20 kDa subunit)” value was “induced in WT macrophages”. Moreover, the “activation of caspase-1” value in the data set with caspase-1 (cryopyrin−/− macrophages) is listed as “abrogated in macrophages lacking cryopyrin”. Besides, in the data set on caspase-1 (macrophages lacking ASC), the “activation of caspase-1” value was “abrogated”. Moreover, the “activation of NF-κB and MAPKs” value in the data set with NF-κB, ERK and p38 (TLR7- and MyD88-deficient macrophages) was “abolished in TLR7- and MyD88-deficient macrophages”. Also, the “NF-κB, ERK and p38 activation” value in the data set with NF-κB, ERK and p38 (WT compared with cryopyrin−/− BMDM) was “induced comparable levels of NF-κB, ERK and p38 activation in WT and cryopyrin−/− macrophages”. In the data set on BMDM (cryopyrin−/− macrophages), the “enhancement of LPS-mediated IL-1β production” value is on record as “abrogated in cryopyrin−/− macrophages”. In addition, the “levels of IL-1β in serum” value in data set [2] (WT mice, co-administration of R837 and LPS (200 μg each) compared with each alone) is “higher levels of IL-1β in serum than injection of R837 or LPS alone”. Also, in data set [2] (setting [7]), the “serum levels of IL-6” value is recorded as “enhanced” and the “serum levels of TNFα” value is on record as “enhanced”. In data set [2] (setting [8]), the “serum levels of IL-6” value is reported as “Reduced levels” and the “serum levels of TNFα” value is on record as “Reduced levels”. Further, the “enhancement of the LPS response (serum IL-1β) by R837” value in data set [2] (cryopyrin−/− mice, LPS plus R837 200 μg each) is given as “abolished in cryopyrin−/− mice”. For the same molecule, in data set [3] (setting [9]), the “production of antigen specific IgG1” value is given as “exhibited a defect”, the “production of antigen specific IgG2a/c” value is “exhibited a defect” and the “production of antigen specific IgG3” value was “exhibited a defect”.
In the case of 5′-TCCATGACGTTCCTGACGTT-3′ [CpG], the “synergy with LPS” value in the data set with BMDM is reported as “not”. Further, in data set [3] (WT compared with cryopyrin−/− mice, CpG 100 μg and HSA 50 μg, boosted 3 weeks later), the “enhancement of HSA-specific IgG responses” value was “unaffected by cryopyrin deficiency”.
Regarding Pam3CSK4, the “secretion of IL-1β” value in data set [1] (setting [4]) was “induced comparable levels of IL-1β in wild-type (WT) and cryopyrin−/− macrophages”.
The same measure, in the same setting: for Pam2CGDPKHPHSF the value was “induced comparable levels of IL-1β in wild-type (WT) and cryopyrin−/− macrophages”.
For the molecule `CC(=O)N[C@H]1C(O)O[C@H](CO)[C@@H](O)[C@@H]1O[C@H](C)C(=O)N[C@@H](C)C(=O)N[C@H](CCC(=O)O)C(N)=O` (mixture of isomers) [MDP, muramyl dipeptide], in data set [1] (setting [6]), the “secretion of IL-1β with brief ATP treatment” value was “did not induce secretion of IL-1β over background levels”. Moreover, the “secretion of IL-1β” value in data set [1] (setting [4]) is listed as “did not induce secretion of IL-1β over background levels”. Also, in the data set with caspase-1, the “proteolytic processing of pro-caspase-1 (mature 20 kDa subunit)” value was “did not induce proteolytic processing of pro-caspase-1”.
With flagellin, the “synergy with LPS” value with BMDM was “not”.
Consider lipopolysaccharide [LPS], for which the “requirement of endosomal acidification for IL-1β secretion” value in data set [1] was “not required”. Further, the “secretion of IL-1β” value in data set [1] (setting [4]) was “induced comparable levels of IL-1β in wild-type (WT) and cryopyrin−/− macrophages”. The “activation of caspase-1” value in the data set on caspase-1 (cryopyrin−/− macrophages) is given as “unimpaired in cryopyrin−/− macrophages”. Also, the “lethality of high doses of LPS” value with mice is “comparable lethality in WT and cryopyrin−/− mice”.
Turning to lipoteichoic acid, the “secretion of IL-1β” value in data set [1] (setting [4]) is “induced comparable levels of IL-1β in wild-type (WT) and cryopyrin−/− macrophages”. Further, the “synergy with LPS” value in the data set on BMDM is “not”.
In the case of `CCN(CC)CCCC(C)Nc1ccnc2cc(Cl)ccc12` (stereo not shown) [chloroquine], the “effect on production of IL-1β induced by bacterial RNA” value in data set [1] (treatment of macrophages with chloroquine) is listed as “did not affect”.
